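Protocol summary: plate cells (96-well), add compound at 5 concentrations, incubate 48 h, interpolate endpoints linearly. TGI is the concentration that stops growth completely.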
Columns and labels:
Assay in all cases: NCI-60 cell line screen, 48 h
786-0 renal = test system: 786-0 renal
A498 renal = test system: A498 renal
A549 NSCLC = test system: A549 NSCLC
ACHN renal = test system: ACHN renal
CAKI-1 renal = test system: CAKI-1 renal
CCRF-CEM leukemia = test system: CCRF-CEM leukemia
COLO 205 colon = test system: COLO 205 colon
DU-145 prostate = test system: DU-145 prostate
EKVX NSCLC = test system: EKVX NSCLC
HCC-2998 colon = test system: HCC-2998 colon
HCT-116 colon = test system: HCT-116 colon
HCT-15 colon = test system: HCT-15 colon
HL-60(TB) leukemia = test system: HL-60(TB) leukemia
HOP-62 NSCLC = test system: HOP-62 NSCLC
HOP-92 NSCLC = test system: HOP-92 NSCLC
HS 578T breast = test system: HS 578T breast
HT29 colon = test system: HT29 colon
IGROV1 ovarian = test system: IGROV1 ovarian
K-562 leukemia = test system: K-562 leukemia
KM12 colon = test system: KM12 colon
LOX IMVI melanoma = test system: LOX IMVI melanoma
M14 melanoma = test system: M14 melanoma
MALME-3M melanoma = test system: MALME-3M melanoma
MCF7 breast = test system: MCF7 breast
MDA-MB-231 breast = test system: MDA-MB-231 breast
MDA-MB-435 = test system: MDA-MB-435
MDA-N = test system: MDA-N
MOLT-4 leukemia = test system: MOLT-4 leukemia
NCI-H226 lung = test system: NCI-H226 lung
NCI-H23 lung = test system: NCI-H23 lung
NCI-H460 lung = test system: NCI-H460 lung
NCI-H522 lung = test system: NCI-H522 lung
NCI/ADR-RES ovarian = test system: NCI/ADR-RES ovarian
OVCAR-3 ovarian = test system: OVCAR-3 ovarian
OVCAR-4 ovarian = test system: OVCAR-4 ovarian
OVCAR-8 ovarian = test system: OVCAR-8 ovarian
PC-3 prostate = test system: PC-3 prostate
RPMI-8226 leukemia = test system: RPMI-8226 leukemia
RXF 393 renal = test system: RXF 393 renal
SF-268 CNS = test system: SF-268 CNS
SF-295 CNS = test system: SF-295 CNS
SF-539 CNS = test system: SF-539 CNS
SK-MEL-2 melanoma = test system: SK-MEL-2 melanoma
SK-MEL-28 melanoma = test system: SK-MEL-28 melanoma
SK-MEL-5 melanoma = test system: SK-MEL-5 melanoma
SK-OV-3 ovarian = test system: SK-OV-3 ovarian
SN12C renal = test system: SN12C renal
SNB-19 CNS = test system: SNB-19 CNS
SNB-75 CNS = test system: SNB-75 CNS
SR leukemia = test system: SR leukemia
SW-620 colon = test system: SW-620 colon
T-47D breast = test system: T-47D breast
TK-10 renal = test system: TK-10 renal
U251 CNS = test system: U251 CNS
UACC-257 melanoma = test system: UACC-257 melanoma
UACC-62 melanoma = test system: UACC-62 melanoma
UO-31 renal = test system: UO-31 renal
BT-549 breast = test system: BT-549 breast
OVCAR-5 ovarian = test system: OVCAR-5 ovarian

## CCOC(CNCCC(=O)OC)OCC
786-0 renal
  TGI: > 10 µM
A498 renal
  TGI: > 10 µM
A549 NSCLC
  TGI: > 10 µM
ACHN renal
  TGI: > 10 µM
CAKI-1 renal
  TGI: > 10 µM
CCRF-CEM leukemia
  TGI: > 10 µM
COLO 205 colon
  TGI: > 10 µM
DU-145 prostate
  TGI: > 10 µM
EKVX NSCLC
  TGI: > 10 µM
HCC-2998 colon
  TGI: > 10 µM
HCT-116 colon
  TGI: > 10 µM
HCT-15 colon
  TGI: > 10 µM
HL-60(TB) leukemia
  TGI: > 10 µM
HOP-62 NSCLC
  TGI: > 10 µM
HOP-92 NSCLC
  TGI: > 10 µM
HS 578T breast
  TGI: > 10 µM
HT29 colon
  TGI: > 10 µM
IGROV1 ovarian
  TGI: > 10 µM
K-562 leukemia
  TGI: > 10 µM
KM12 colon
  TGI: > 10 µM
LOX IMVI melanoma
  TGI: > 10 µM
M14 melanoma
  TGI: > 10 µM
MALME-3M melanoma
  TGI: > 10 µM
MCF7 breast
  TGI: > 10 µM
MDA-MB-231 breast
  TGI: > 10 µM
MDA-MB-435
  TGI: > 10 µM
MDA-N
  TGI: > 10 µM
MOLT-4 leukemia
  TGI: > 10 µM
NCI-H226 lung
  TGI: > 10 µM
NCI-H23 lung
  TGI: > 10 µM
NCI-H460 lung
  TGI: > 10 µM
NCI-H522 lung
  TGI: > 10 µM
NCI/ADR-RES ovarian
  TGI: > 10 µM
OVCAR-3 ovarian
  TGI: > 10 µM
OVCAR-4 ovarian
  TGI: > 10 µM
OVCAR-8 ovarian
  TGI: > 10 µM
PC-3 prostate
  TGI: > 10 µM
RPMI-8226 leukemia
  TGI: > 10 µM
RXF 393 renal
  TGI: > 10 µM
SF-268 CNS
  TGI: > 10 µM
SF-295 CNS
  TGI: > 10 µM
SF-539 CNS
  TGI: > 10 µM
SK-MEL-2 melanoma
  TGI: > 10 µM
SK-MEL-28 melanoma
  TGI: > 10 µM
SK-MEL-5 melanoma
  TGI: > 10 µM
SK-OV-3 ovarian
  TGI: > 10 µM
SN12C renal
  TGI: > 10 µM
SNB-19 CNS
  TGI: > 10 µM
SNB-75 CNS
  TGI: > 10 µM
SR leukemia
  TGI: > 10 µM
SW-620 colon
  TGI: > 10 µM
T-47D breast
  TGI: > 10 µM
TK-10 renal
  TGI: > 10 µM
U251 CNS
  TGI: > 10 µM
UACC-257 melanoma
  TGI: > 10 µM
UACC-62 melanoma
  TGI: > 10 µM
UO-31 renal
  TGI: > 10 µM

## CCOC(=O)c1c(-c2ccccc2)c(-c2ccccc2)cn1C
786-0 renal
  TGI: > 10 µM
A549 NSCLC
  TGI: > 10 µM
ACHN renal
  TGI: > 10 µM
BT-549 breast
  TGI: > 10 µM
CCRF-CEM leukemia
  TGI: > 10 µM
DU-145 prostate
  TGI: > 10 µM
EKVX NSCLC
  TGI: > 10 µM
HCC-2998 colon
  TGI: > 10 µM
HCT-15 colon
  TGI: > 10 µM
HL-60(TB) leukemia
  TGI: > 10 µM
HOP-92 NSCLC
  TGI: > 10 µM
HS 578T breast
  TGI: > 10 µM
HT29 colon
  TGI: > 10 µM
IGROV1 ovarian
  TGI: > 10 µM
K-562 leukemia
  TGI: > 10 µM
KM12 colon
  TGI: > 10 µM
M14 melanoma
  TGI: > 10 µM
MALME-3M melanoma
  TGI: > 10 µM
MDA-MB-435
  TGI: > 10 µM
MDA-N
  TGI: > 10 µM
MOLT-4 leukemia
  TGI: > 10 µM
NCI-H226 lung
  TGI: > 10 µM
NCI-H23 lung
  TGI: > 10 µM
NCI-H460 lung
  TGI: > 10 µM
NCI-H522 lung
  TGI: > 10 µM
NCI/ADR-RES ovarian
  TGI: > 10 µM
OVCAR-3 ovarian
  TGI: > 10 µM
OVCAR-4 ovarian
  TGI: > 10 µM
OVCAR-5 ovarian
  TGI: > 10 µM
OVCAR-8 ovarian
  TGI: > 10 µM
RXF 393 renal
  TGI: > 10 µM
SF-268 CNS
  TGI: > 10 µM
SF-295 CNS
  TGI: > 10 µM
SF-539 CNS
  TGI: > 10 µM
SK-MEL-2 melanoma
  TGI: > 10 µM
SK-OV-3 ovarian
  TGI: > 10 µM
SN12C renal
  TGI: > 10 µM
SNB-19 CNS
  TGI: > 10 µM
SNB-75 CNS
  TGI: > 10 µM
SR leukemia
  TGI: > 10 µM
TK-10 renal
  TGI: > 10 µM
U251 CNS
  TGI: > 10 µM
UACC-257 melanoma
  TGI: > 10 µM
UACC-62 melanoma
  TGI: > 10 µM
UO-31 renal
  TGI: > 10 µM

## CCC1=NC(C(F)(F)F)(C(F)(F)F)N=C(N2CCOCC2)O1
A549 NSCLC
  TGI: > 100 µM
ACHN renal
  TGI: > 100 µM
CAKI-1 renal
  TGI: > 100 µM
CCRF-CEM leukemia
  TGI: > 100 µM
COLO 205 colon
  TGI: > 100 µM
DU-145 prostate
  TGI: > 100 µM
EKVX NSCLC
  TGI: > 100 µM
HCC-2998 colon
  TGI: > 100 µM
HCT-116 colon
  TGI: > 100 µM
HCT-15 colon
  TGI: > 100 µM
HL-60(TB) leukemia
  TGI: > 100 µM
HOP-92 NSCLC
  TGI: > 100 µM
HS 578T breast
  TGI: > 100 µM
HT29 colon
  TGI: > 100 µM
IGROV1 ovarian
  TGI: > 100 µM
K-562 leukemia
  TGI: > 100 µM
KM12 colon
  TGI: > 100 µM
LOX IMVI melanoma
  TGI: > 100 µM
M14 melanoma
  TGI: > 100 µM
MCF7 breast
  TGI: > 100 µM
MDA-MB-231 breast
  TGI: > 100 µM
MDA-MB-435
  TGI: > 100 µM
MDA-N
  TGI: > 100 µM
MOLT-4 leukemia
  TGI: > 100 µM
NCI-H23 lung
  TGI: > 100 µM
NCI-H460 lung
  TGI: > 100 µM
NCI-H522 lung
  TGI: > 100 µM
NCI/ADR-RES ovarian
  TGI: > 100 µM
OVCAR-3 ovarian
  TGI: > 100 µM
OVCAR-4 ovarian
  TGI: > 100 µM
OVCAR-5 ovarian
  TGI: > 100 µM
OVCAR-8 ovarian
  TGI: > 100 µM
PC-3 prostate
  TGI: > 100 µM
RPMI-8226 leukemia
  TGI: > 100 µM
RXF 393 renal
  TGI: > 100 µM
SF-268 CNS
  TGI: > 100 µM
SF-295 CNS
  TGI: > 100 µM
SF-539 CNS
  TGI: > 100 µM
SK-MEL-2 melanoma
  TGI: > 100 µM
SK-MEL-28 melanoma
  TGI: > 100 µM
SK-MEL-5 melanoma
  TGI: > 100 µM
SK-OV-3 ovarian
  TGI: > 100 µM
SN12C renal
  TGI: > 100 µM
SNB-19 CNS
  TGI: > 100 µM
SNB-75 CNS
  TGI: > 100 µM
SR leukemia
  TGI: > 100 µM
SW-620 colon
  TGI: > 100 µM
T-47D breast
  TGI: > 100 µM
TK-10 renal
  TGI: > 100 µM
U251 CNS
  TGI: > 100 µM
UACC-257 melanoma
  TGI: > 100 µM
UACC-62 melanoma
  TGI: > 100 µM
UO-31 renal
  TGI: > 100 µM

## Cc1c(N2C(=O)C(Cl)C2c2ccc(Cl)cc2)c(=O)n(-c2ccccc2)n1C (configuration not stated)
786-0 renal
  TGI: > 100 µM
A549 NSCLC
  TGI: > 100 µM
ACHN renal
  TGI: 83.2 µM
BT-549 breast
  TGI: > 100 µM
CAKI-1 renal
  TGI: > 100 µM
CCRF-CEM leukemia
  TGI: > 100 µM
COLO 205 colon
  TGI: > 100 µM
DU-145 prostate
  TGI: > 100 µM
EKVX NSCLC
  TGI: > 100 µM
HCT-116 colon
  TGI: 36 µM
HL-60(TB) leukemia
  TGI: > 100 µM
HOP-62 NSCLC
  TGI: > 100 µM
HOP-92 NSCLC
  TGI: > 100 µM
HT29 colon
  TGI: > 100 µM
IGROV1 ovarian
  TGI: > 100 µM
K-562 leukemia
  TGI: > 100 µM
KM12 colon
  TGI: > 100 µM
LOX IMVI melanoma
  TGI: 91.6 µM
M14 melanoma
  TGI: > 100 µM
MALME-3M melanoma
  TGI: > 100 µM
MCF7 breast
  TGI: > 100 µM
MDA-MB-231 breast
  TGI: > 100 µM
MDA-MB-435
  TGI: 59.8 µM
MDA-N
  TGI: 81.3 µM
MOLT-4 leukemia
  TGI: > 100 µM
NCI-H226 lung
  TGI: > 100 µM
NCI-H23 lung
  TGI: 85.1 µM
NCI-H460 lung
  TGI: > 100 µM
NCI-H522 lung
  TGI: > 100 µM
NCI/ADR-RES ovarian
  TGI: > 100 µM
OVCAR-3 ovarian
  TGI: > 100 µM
OVCAR-4 ovarian
  TGI: > 100 µM
OVCAR-5 ovarian
  TGI: > 100 µM
OVCAR-8 ovarian
  TGI: > 100 µM
PC-3 prostate
  TGI: > 100 µM
RPMI-8226 leukemia
  TGI: 42.6 µM
RXF 393 renal
  TGI: > 100 µM
SF-268 CNS
  TGI: > 100 µM
SF-295 CNS
  TGI: > 100 µM
SF-539 CNS
  TGI: > 100 µM
SK-MEL-2 melanoma
  TGI: > 100 µM
SK-MEL-5 melanoma
  TGI: > 100 µM
SK-OV-3 ovarian
  TGI: > 100 µM
SN12C renal
  TGI: > 100 µM
SR leukemia
  TGI: > 100 µM
SW-620 colon
  TGI: > 100 µM
T-47D breast
  TGI: > 100 µM
TK-10 renal
  TGI: > 100 µM
U251 CNS
  TGI: > 100 µM
UACC-257 melanoma
  TGI: 48.1 µM
UACC-62 melanoma
  TGI: > 100 µM
UO-31 renal
  TGI: > 100 µM
